Test results reported in patent publication US20090233796A1, “HERBICIDAL COMPOSITION” (SYNGENTA CROP PROTECTION, INC., priority 2004, published 2009).

What was measured:
Type in all cases: in vivo
STELLARIA MEDIA = test: Compound (A) with triasulfuron, weed plots; details: 26 g per hectare; 30 DAA; No. 3.1
Experimental: In these tests, various weeds were treated with triasulfuron alone at a rate equivalent to 26 g per hectare, Compound (A) alone at a rate equivalent to 10 g per hectare, and to a mixture of triasulfuron and Compound (A) at rates equivalent to the sum of these. The compositions were formulated as an emulsifyable concentrate (EC).
The results in the table under each application are the percentage of the plants that were killed.

CONYZA SP. = test: Compound (A) with paraquat, weed plots; details: 700 g/ha, 5 DAA
Experimental: (§1) In these tests, various weeds were treated with paraquat alone at rates equivalent to 700 g per hectare and 840 g per hectare, compound (A) alone at rates equivalent to 10 g per hectare and 20 g per hectare, and with a mixture of paraquat and compound (A) at rates equivalent to the sum of these. The compositions were formulated as an emulsifyable concentrate (EC).
(§2) The results in the table under each application are the percentage of the weeds plants that were killed.

CYPERUS ROTUNDUS = test: Compound (A) with paraquat, weed plots; details: 840 g/ha; 56 DAA; No. 1.11
Experimental: as §1, §2

DIGITARIA CILIARIS = test: Compound (A) with paraquat, weed plots; details: 700 g/ha; 51 DAA; No. 1.7
Experimental: as §1, §2

E[…]-GALLI = test: Compound (A) with paraquat, weed plots; details: 700 g/ha; 51 DAA; No. 1.8
Experimental: as §1, §2

LAMIUM PURPUREUM = test: Compound (A) with paraquat, weed plots; details: 700 g/ha; 2 DAA; No. 1.5
Experimental: as §1, §2

LOLIUM RIGIDUM = test: Compound (A) with paraquat, weed plots; details: 700 g/ha; 41 DAA; No. 1.4
Experimental: as §1, §2

SETARIA SP. = test: Compound (A) with paraquat, weed plots; details: 700 g/ha; 27 DAA; No. 1.2
Experimental: as §1, §2

SETARIA VIRIDIS = test: Compound (A) with paraquat, weed plots; details: 700 g/ha; 43 DAA; No. 1.3
Experimental: as §1, §2

SONCHUS ASPER = test: Compound (A) with paraquat, weed plots; details: 840 g/ha; 32 DAA; No. 1.10
Experimental: as §1, §2

VERONICA PERSICA = test: Compound (A) with paraquat, weed plots; details: 700 g/ha; 69 DAA; No. 1.6
Experimental: as §1, §2

Question: How did the “percentage of the plants that were killed” value (STELLARIA MEDIA) turn out when COc1nc(C)nc(NC(=O)NS(=O)(=O)c2ccccc2OCCCl)n1 [Triasulfuron, triasulfuron, reference compound] was run?
Answer: Its value is 25%.

Question: With C[n+]1ccc(-c2cc[n+](C)cc2)cc1 [paraquat, reference compound] as the molecule, how does the “percentage of the weeds plants that were killed” value (CONYZA SP.; No. 1.1) read?
Answer: Its value is 2%.

Question: What about the “percentage of the weeds plants that were killed” value (CONYZA SP.; No. 1.9) of the same molecule?
Answer: The value was 2%.

Question: And the “percentage of the weeds plants that were killed” value (CYPERUS ROTUNDUS)?
Answer: The value was 65%.

Question: What about the “percentage of the weeds plants that were killed” value (DIGITARIA CILIARIS) of the same molecule?
Answer: The value was 0%.

Question: What about the “percentage of the weeds plants that were killed” value (E[…]-GALLI) of the same molecule?
Answer: The value was 0%.

Question: And the “percentage of the weeds plants that were killed” value (LAMIUM PURPUREUM)?
Answer: The value was 53%.

Question: And the “percentage of the weeds plants that were killed” value (LOLIUM RIGIDUM)?
Answer: The value was 53%.

Question: And the “percentage of the weeds plants that were killed” value (SETARIA SP.)?
Answer: The value was 0%.

Question: What about the “percentage of the weeds plants that were killed” value (SETARIA VIRIDIS) of the same molecule?
Answer: The value was 0%.

Question: What about the “percentage of the weeds plants that were killed” value (SONCHUS ASPER) of the same molecule?
Answer: The value was 0%.

Question: What about the “percentage of the weeds plants that were killed” value (VERONICA PERSICA) of the same molecule?
Answer: Its value is 25%.
